Assay results from PubChem BioAssay AID248 (DTP/NCI, 2004).
“And” between values parts separate entries of the source, which are not always exact repeats. Equal entries are not always repeated. Inconclusive results and toxic doses are left out. Cut-off read from the data, not from the text of the source: active = T/C of 150% or more; inactive = T/C below 125%.

Tested on: L1210 leukemia ip in BDF1 mice, survival T/C
Test: NCI In Vivo Anticancer Drug Screen. Data for tumor model L1210 Leukemia (intraperitoneal) in B6D2F1 (BDF1) mice
Settings: endpoint: mean survival time, higher = longer survival
Summary of the method: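 Tumor was transplanted into mice, which were then dosed with test compound or vehicle alone. Survival was recorded for each group, and the treated figure was expressed relative to the control figure.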

[1] = dose: 50.0 mg/kg/injection, schedule: Q01DX001 (ip), vehicle: carboxymethylcellulose (CMC)
[2] = dose: 200.0 mg/kg/injection, schedule: Q04DX003 (ip), vehicle: saline with Tween-80
[3] = dose: 400.0 mg/kg/injection, schedule: Q04DX003 (ip), vehicle: saline with Tween-80
[4] = dose: 12.5 mg/kg/injection, schedule: Q04DX003 (ip), vehicle: Klucel (hydroxypropylcellulose) (HPC)
[5] = dose: 25.0 mg/kg/injection, schedule: Q01DX001 (ip), vehicle: carboxymethylcellulose (CMC)
[6] = dose: 25.0 mg/kg/injection, schedule: Q04DX003 (ip), vehicle: Klucel (hydroxypropylcellulose) (HPC)
[7] = dose: 100.0 mg/kg/injection, schedule: Q01DX001 (ip), vehicle: saline
[8] = dose: 200.0 mg/kg/injection, schedule: Q01DX001 (ip), vehicle: saline
[9] = dose: 400.0 mg/kg/injection, schedule: Q01DX001 (ip), vehicle: saline
[10] = dose: 100.0 mg/kg/injection, schedule: Q01DX009 (ip), vehicle: saline
[11] = dose: 200.0 mg/kg/injection, schedule: Q01DX009 (ip), vehicle: saline
[12] = dose: 400.0 mg/kg/injection, schedule: Q01DX009 (ip), vehicle: saline
[13] = dose: 50.0 mg/kg/injection, schedule: Q01DX009 (ip), vehicle: Klucel (hydroxypropylcellulose) (HPC)

Measured: T/C

COc1ccc2nccc(C=O)c2c1
inactive: [1] 108 % of control | dose: 100.0 mg/kg/injection, schedule: Q01DX001 (ip), vehicle: carboxymethylcellulose (CMC) 102 % of control | dose: 100.0 mg/kg/injection, schedule: Q01DX009 (ip), vehicle: saline with Tween-80 101 % of control | dose: 200.0 mg/kg/injection, schedule: Q01DX001 (ip), vehicle: carboxymethylcellulose (CMC) 102 % of control | dose: 200.0 mg/kg/injection, schedule: Q01DX009 (ip), vehicle: saline with Tween-80 95 % of control | [2] 101 % of control | dose: 400.0 mg/kg/injection, schedule: Q01DX001 (ip), vehicle: carboxymethylcellulose (CMC) 96 % of control | [3] 89 % of control

CC(=O)OC1CC(OC2C(O)CC(OC3C(O)CC(OC4CCC5(C)C(CCC6C5CCC5(C)C(C7=CC(=O)OC7)C(O)CC65O)C4)OC3C)OC2C)OC(C)C1OC1OC(CO)C(O)C(O)C1O (centres undefined)
inactive: [4] 97 % of control | [5] 111 % of control | [6] 103 % of control | [1] 105 % of control | dose: 50.0 mg/kg/injection, schedule: Q04DX003 (ip), vehicle: Klucel (hydroxypropylcellulose) (HPC) 112 % of control | dose: 100.0 mg/kg/injection, schedule: Q04DX003 (ip), vehicle: Klucel (hydroxypropylcellulose) (HPC) 97 % of control

C[N+](C)(CCCCOCCCC[N+](C)(C)Cc1ccc([N+](=O)[O-])cc1)Cc1ccc([N+](=O)[O-])cc1
inactive: dose: 1.5 mg/kg/injection, schedule: Q04DX003 (ip), vehicle: saline with Tween-80 98 % of control | dose: 3.0 mg/kg/injection, schedule: Q04DX003 (ip), vehicle: saline with Tween-80 104 % of control

C1=C(c2ccccc2)N=C(c2ccccc2)C2C(c3ccccc3)N2C1c1ccccc1 (centres undefined)
inactive: dose: 100.0 mg/kg/injection, schedule: Q01DX001 (ip), vehicle: Klucel (hydroxypropylcellulose) (HPC) 87 % of control | dose: 200.0 mg/kg/injection, schedule: Q01DX001 (ip), vehicle: Klucel (hydroxypropylcellulose) (HPC) 91 % of control

CN(C=O)c1ccc(C(=O)N(C(=O)NC2CCCCC2)C2CCCCC2)cc1
inactive: [7] 98 % of control | [8] 93 % of control | [9] 90 % of control

c1cnc(OCCN2CC2)nc1
inactive: [5] 93 % of control | [1] 95 % of control

C=C1CC(OC(C)=O)C2C(C)C(=O)OC2C2C1CC1OC12C (centres undefined)
inactive: dose: 100.0 mg/kg/injection, schedule: Q04DX002 (ip), vehicle: saline 92 % of control | dose: 200.0 mg/kg/injection, schedule: Q04DX002 (ip), vehicle: saline 92 % of control

CC/C=C(CC)/C(=C/CC)CC
inactive: [7] 97 % of control | [10] 98 % of control | [8] 105 % of control | [11] 96 % of control | [9] 102 % of control

CC(C)C(C=NCC(CCN1CCOCC1)(c1ccc2ccccc2c1)C(C)C)(CCN1CCOCC1)c1ccc2ccccc2c1 (centres undefined)
inactive: dose: 25.0 mg/kg/injection, schedule: Q04DX002 (ip), vehicle: saline with Tween-80 92 % of control | dose: 50.0 mg/kg/injection, schedule: Q04DX002 (ip), vehicle: saline with Tween-80 98 % of control | dose: 100.0 mg/kg/injection, schedule: Q04DX002 (ip), vehicle: saline with Tween-80 92 % of control

OCC/C=C/CCCO
inactive: [10] 97 % of control | [11] 96 % of control | [12] 94 % of control

NC(=O)c1c(CC(=O)O)nn(-c2ccccc2)c1N
inactive: [13] 94 % of control | dose: 100.0 mg/kg/injection, schedule: Q01DX009 (ip), vehicle: Klucel (hydroxypropylcellulose) (HPC) 98 % of control | dose: 200.0 mg/kg/injection, schedule: Q01DX009 (ip), vehicle: Klucel (hydroxypropylcellulose) (HPC) 102 % of control

C=C1C(=O)OC2C1CCC(C)C1(CCC(=O)O1)C2(C)O (centres undefined)
inactive: dose: 100.0 mg/kg/injection, schedule: Q04DX003 (ip), vehicle: saline with Tween-80 96 % of control | [2] 96 % of control | [3] 96 % of control

CCCCC(CC)CNCC(O)CNCC(CC)CCCC (centres undefined)
inactive: [13] 88 % of control | dose: 100.0 mg/kg/injection, schedule: Q04DX002 (ip), vehicle: Klucel (hydroxypropylcellulose) (HPC) 108 % of control | dose: 200.0 mg/kg/injection, schedule: Q04DX002 (ip), vehicle: Klucel (hydroxypropylcellulose) (HPC) 101 % of control

CCN(CC)C1CCC(NC(C)=O)CC1 (centres undefined)
inactive: [10] 108 % of control | dose: 100.0 mg/kg/injection, schedule: Q04DX003 (ip), vehicle: saline 105 % of control and 97 % of control | [11] 107 % of control | dose: 200.0 mg/kg/injection, schedule: Q04DX003 (ip), vehicle: saline 96 % of control and 99 % of control | [12] 86 % of control | dose: 400.0 mg/kg/injection, schedule: Q04DX003 (ip), vehicle: saline 101 % of control

Cc1n[nH]c(=S)[nH]c1=O
inactive: dose: 50.0 mg/kg/injection, schedule: Q01DX001 (ip), vehicle: saline 100 % of control | [7] 100 % of control | [8] 100 % of control | [9] 94 % of control

CC(C)(C)OOC(=O)Nc1ccc(Cl)cc1
inactive: dose: 200.0 mg/kg/injection, schedule: Q01DX001 (ip), vehicle: saline with Tween-80 89 % of control | dose: 400.0 mg/kg/injection, schedule: Q01DX001 (ip), vehicle: saline with Tween-80 92 % of control

NCCCCCCN=C(N)C(N)=NCCCCCCN
inactive: dose: 1.5 mg/kg/injection, schedule: Q01DX009 (ip), vehicle: Klucel (hydroxypropylcellulose) (HPC) 96 % of control | dose: 3.0 mg/kg/injection, schedule: Q01DX009 (ip), vehicle: Klucel (hydroxypropylcellulose) (HPC) 112 % of control | dose: 6.0 mg/kg/injection, schedule: Q01DX009 (ip), vehicle: Klucel (hydroxypropylcellulose) (HPC) 102 % of control | [4] 93 % of control | [6] 93 % of control

CCCCCCCCCCCC[N+](C)(C)Cc1ccccc1
inactive: dose: 1.56 mg/kg/injection, schedule: Q01DX009 (ip), vehicle: saline 106 % of control | dose: 3.12 mg/kg/injection, schedule: Q01DX009 (ip), vehicle: saline 111 % of control | dose: 3.12 mg/kg/injection, schedule: Q04DX003 (ip), vehicle: saline 98 % of control | dose: 6.25 mg/kg/injection, schedule: Q04DX003 (ip), vehicle: saline 104 % of control | dose: 12.5 mg/kg/injection, schedule: Q01DX001 (ip), vehicle: saline 103 % of control

ClCC/C=C\C=C\CCCl
inactive: dose: 75.0 mg/kg/injection, schedule: Q01DX001 (ip), vehicle: saline 93 % of control | dose: 75.0 mg/kg/injection, schedule: Q04DX003 (ip), vehicle: saline 107 % of control | dose: 150.0 mg/kg/injection, schedule: Q01DX001 (ip), vehicle: saline 105 % of control | dose: 150.0 mg/kg/injection, schedule: Q04DX003 (ip), vehicle: saline 111 % of control | dose: 300.0 mg/kg/injection, schedule: Q01DX001 (ip), vehicle: saline 93 % of control | dose: 300.0 mg/kg/injection, schedule: Q04DX003 (ip), vehicle: saline 107 % of control

COc1ccc(C2CC(=O)OC(=O)C2)cc1
inactive: dose: 25.6 mg/kg/injection, schedule: Q04DX002 (ip), vehicle: saline with Tween-80 101 % of control | dose: 64.0 mg/kg/injection, schedule: Q04DX002 (ip), vehicle: saline with Tween-80 101 % of control | dose: 160.0 mg/kg/injection, schedule: Q04DX002 (ip), vehicle: saline with Tween-80 101 % of control | [2] 97 % of control | dose: 400.0 mg/kg/injection, schedule: Q04DX002 (ip), vehicle: saline with Tween-80 95 % of control | [3] 92 % of control
